Read-outs that look alike come from different tables or passages of the source.
Molecular target: SARS-CoV-2 Papain-Like Protease (PLpro) (Severe acute respiratory syndrome coronavirus 2 (2019-nCoV) (SARS-CoV-2), UniProt P0DTD1)
Assay: biochemical
Conditions: read-out: PLpro IC50
[1] = PLpro enzymatic fluorescence assay, class symbols
[2] = SARS-CoV-2 PLpro enzymatic fluorescence assay

Molecule | IC50 [1] [nM] | IC50 [2] [nM]
Cc1ccc(OC[C@@H]2CCN2C)cc1C(=O)NC1(c2cc(N3CCCC3)cc3ncccc23)CC1 [Compound 683, (S)-2-Methyl-5-((1-methylazetidin-2-yl)methoxy)-N-(1-(7-(pyrrolidin-1-yl)quinolin-5-yl)cyclopropyl)benzamide] | < 100 | 
Cc1ccc(OCC2CCN2C)cc1C(=O)NC1(c2cccc3cnccc23)CC1 (centres unmarked) [Compound 402, N-(1-(Isoquinolin-5-yl)cyclopropyl)-2-methyl-5-((1-methylazetidin-2-yl)methoxy)benzamide] |  | < 100
Cc1ccc(OC[C@@H]2CCN2)cc1C(=O)NC1(c2cc(-c3ccc4nccn4c3)cc3ncccc23)CC1 [Compound 686, (S)-5-(Azetidin-2-ylmethoxy)-N-(1-(7-(imidazo[1,2-a]pyridin-6-yl)quinolin-5-yl)cyclopropyl)-2-methylbenzamide] | < 100 | 
Cc1ccc(OCC2CCN2C)cc1C(=O)NC1(c2cccc3nc(Cl)ccc23)CC1 (centres unmarked) [Compound 436, N-(1-(2-Chloroquinolin-5-yl)cyclopropyl)-2-methyl-5-((1-methylazetidin-2-yl)methoxy)benzamide] |  | < 100
C=Cc1cc(C2(NC(=O)c3cc(OC[C@@H]4CCN4C)c(O)cc3C)CC2)c2cccnc2c1 [Compound 755, (S)-4-Hydroxy-2-methyl-5-((1-methylazetidin-2-yl)methoxy)-N-(1-(7-vinylquinolin-5-yl)cyclopropyl)benzamide] | < 100 | 
C=Cc1cc(C2(NC(=O)c3cc(OC[C@H](C)N)ccc3C)CC2)c2cccnc2c1 [Compound 735, (S)-5-(2-Aminopropoxy)-2-methyl-N-(1-(7-vinylquinolin-5-yl)cyclopropyl)benzamide] | < 100 | 
Cc1ccc(OCC2CCN2C)cc1C(=O)N[C@@H](c1cccc2ccccc12)C(F)(F)F (stereo partly drawn) [Compound 386, 2-Methyl-5-((1-methylazetidin-2-yl)methoxy)-N-((S)-2,2,2-trifluoro-1-(naphthalen-1-yl)ethyl)benzamide] |  | < 100
Cc1cc2cc(C(=O)O)[nH]c2cc1C(=O)NC1(c2cccc3ccccc23)CC1 [Compound 204, 5-Methyl-6-((1-(naphthalen-1-yl)cyclopropyl)carbamoyl)-1H-indole-2-carboxylic acid] |  | 100 to 1000
Cc1ccc(OC[C@H]2C[C@@H](O)CN2C)cc1C(=O)NC1(c2cccc3ccccc23)CC1 (single isomer, unassigned) [Compound 440] |  | < 100
CNCCOc1ccc(C)c(C(=O)NC2(c3cccc4cc(F)ccc34)CC2)c1 [Compound 377, N-(1-(6-Fluoronaphthalen-1-yl)cyclopropyl)-2-methyl-5-(2-(methylamino)ethoxy)benzamide] |  | < 100
Cc1ccc(OC[C@@H]2CCN2C)cc1C(=O)NC1(c2cccc3ncccc23)CC1 [Compound 391, (S)-2-Methyl-5-((1-methylazetidin-2-yl)methoxy)-N-(1-(quinolin-5-yl)cyclopropyl)benzamide] |  | < 100
Cc1ccc(OC[C@@H]2CCN2C)cc1C(=O)NC1(c2cc(-c3ccc(CN(C)C)s3)cc3ncccc23)CC1 [Compound 756, (S)—N-(1-(7-(5-((Dimethylamino)methyl)thiophen-2-yl)quinolin-5-yl)cyclopropyl)-2-methyl-5-((1-methylazetidin-2-yl)methoxy)benzamide] | < 100 | 
COc1cc(C2(NCc3cc(OCCN)ccc3C)CC2)c2cccnc2c1 [Compound 513] | < 100 | 
CCN1CCC1COc1ccc(C)c(C(=O)NC2(c3cccc4ccccc34)CC2)c1 (centres unmarked) [Compound 314, 5-((1-Ethylazetidin-2-yl)methoxy)-2-methyl-N-(1-(naphthalen-1-yl)cyclopropyl)benzamide] |  | < 100
2-Methyl-N-(1-(naphthalen-1-yl)cyclopropyl)-5-(piperidin-2-ylmethoxy)benzamide [Compound 339] |  | < 100
COc1cc(C2(NC(=O)c3cc(OC[C@@H]4CC[C@@H]5CN(C)CCN54)ccc3C)CC2)c2cccnc2c1 [Compound 784] | < 100 | 
Cc1ccc(CCC(N)=O)cc1C(=O)NC1(c2cccc3ccccc23)CC1 [Compound 452, 5-(3-Amino-3-oxopropyl)-2-methyl-N-(1-(naphthalen-1-yl)cyclopropyl)benzamide] |  | 100 to 1000
Cc1ccc(OCCN(C)C)cc1C(=O)N[C@H](C)c1cccc2ccccc12 [Compound 160, (R)-5-(2-(Dimethylamino)ethoxy)-2-methyl-N-(1-(naphthalen-1-yl)ethyl)benzamide] |  | 100 to 1000
Cc1ccc(OCCN(C)C)cc1C(=O)NC1(c2cccc3sccc23)CC1 [Compound 356, N-(1-(Benzo[b]thiophen-4-yl)cyclopropyl)-5-(2-(dimethylamino)ethoxy)-2-methylbenzamide] |  | < 100
Cc1ccc(OCC2CCN2)cc1C(=O)NC1(c2cccc3ccccc23)CC1 (centres unmarked) [Compound 274, 5-(Azetidin-2-ylmethoxy)-2-methyl-N-(1-(naphthalen-1-yl)cyclopropyl)benzamide] |  | < 100
Cc1nnc(-c2cc(C3(NC(=O)c4cc(OC[C@@H]5CCN5)ccc4C)CC3)c3cccnc3c2)o1 [Compound 680, (S)-5-(Azetidin-2-ylmethoxy)-2-methyl-N-(1-(7-(5-methyl-1,3,4-oxadiazol-2-yl)quinolin-5-yl)cyclopropyl)benzamide] | < 100 | 
CC(c1cccc2ccccc12)N1CCc2ccc([N+](=O)[O-])cc2C1 (centres unmarked) [Compound 127, 2-(1-(Naphthalen-1-yl)ethyl)-7-nitro-1,2,3,4-tetrahydroisoquinoline] | > 5000 | 
COc1cc(C2(NC(=O)c3cc(OC[C@@H]4CCN4C)ccc3C)CC2)c2ccc(C)nc2c1 [Compound 625, (S)-N-(1-(7-Methoxy-2-methylquinolin-5-yl)cyclopropyl)-2-methyl-5-((1-methylazetidin-2-yl)methoxy)benzamide] | < 100 | 
Cc1ccc(OCC2(N)CC2)cc1C(=O)NC1(c2cccc3ccccc23)CC1 [Compound 256] |  | < 100
Cc1ccc(CCC2CCN2C)cc1C(=O)NC1(c2cccc3ccccc23)CC1 (centres unmarked) [Compound 455, 2-Methyl-5-(2-(1-methylazetidin-2-yl)ethyl)-N-(1-(naphthalen-1-yl)cyclopropyl)benzamide] |  | < 100
COc1ccnc(COc2ccc(C)c(C(=O)NC3(c4cc(OC)cc5ncccc45)CC3)c2)c1 [Compound 561, 5-((4-Methoxypyridin-2-yl)methoxy)-N-(1-(7-methoxyquinolin-5-yl)cyclopropyl)-2-methylbenzamide] |  | 100 to 1000
Cc1ccc2c(C3(NC(=O)c4cc(OC[C@@H]5CCN5C)ccc4C)CC3)cc(NS(C)(=O)=O)cc2n1 [Compound 825, (S)-2-Methyl-N-(1-(2-methyl-7-(methylsulfonamido)quinolin-5-yl)cyclopropyl)-5-((1-methylazetidin-2-yl)methoxy)benzamide] | < 100 | 
Cc1cc2c(cc1C(=O)NC1(c3cccc4ccccc34)CC1)NC(CN)C2 (centres unmarked) [Compound 190, 2-(Aminomethyl)-5-methyl-N-(1-(naphthalen-1-yl)cyclopropyl)indoline-6-carboxamide] |  | < 100
5-((1-(2-Hydroxyethyl)azetidin-2-yl)methoxy)-2-methyl-N-(1-(naphthalen-1-yl)cyclopropyl)benzamide [Compound 341] |  | < 100

— patent US20250025443A1, “COMPOUNDS AND METHODS FOR TREATING CORONA VIRUSES” (CLEAR CREEK BIO, INC., priority 2021, published 2025)
